According to the supplement of paper PMC9912026:

System: A375_aEGFR2
Experiment: pERK immunofluorescence normalised to no-drug reference (=1); higher = more ERK phosphorylation (less pathway inhibition)
Settings: drug treatment time 24 h, EGF time 8 h
Protocol: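 A375 CRISPRa-EGFR (A375_aEGFR2) or HT29 cells were treated with two-drug dose combinations (vemurafenib, LY3009120, cobimetinib) for 24 h, then stimulated with EGF (100 ng/mL) or mock medium for 8 h. pERK (T202/Y204) was measured by immunofluorescence as the cytosolic population average, normalised to an untreated no-drug reference of the block (=1). Averages of 2 technical replicates. A375 in 5% FBS, HT29 in 10% FBS.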

CNc1ncc2cc(-c3cc(NC(=O)NCCC(C)(C)C)c(F)cc3C)c(C)nc2n1 + O=C(c1ccc(F)c(F)c1Nc1ccc(I)cc1F)N1CC(O)([C@@H]2CCCCN2)C1 [Cobimetinib]
pERK immunofluorescence normalised
Settings | EGF 0 ng/mL | EGF 100 ng/mL
drug A concentration 0 µM, drug B concentration 31.62 pM | 1.06 | 0.985
drug A concentration 0 µM, drug B concentration 0.0001 µM | 1.04 | 0.985
drug A concentration 0 µM, drug B concentration 0.000316228 µM | 1.08 | 0.976
drug A concentration 0 µM, drug B concentration 0.001 µM | 0.997 | 0.964
drug A concentration 0 µM, drug B concentration 0.00316228 µM | 0.841 | 0.85
drug A concentration 0 µM, drug B concentration 0.01 µM | 0.546 | 0.726
drug A concentration 0 µM, drug B concentration 0.0316228 µM | 0.29 | 0.564
drug A concentration 0 µM, drug B concentration 0.1 µM | 0.243 | 0.541
drug A concentration 0 µM, drug B concentration 0.316228 µM | 0.235 | 0.428
drug A concentration 0 µM, drug B concentration 1 µM | 0.235 | 0.278
drug A concentration 0.0001 µM, drug B concentration 0 µM | 1.07 | 0.987
drug A concentration 0.0001 µM, drug B concentration 31.62 pM | 0.993 | 0.987
drug A concentration 0.0001 µM, drug B concentration 0.0001 µM | 1.05 | 1.01
drug A concentration 0.0001 µM, drug B concentration 0.000316228 µM | 1.01 | 0.946
drug A concentration 0.0001 µM, drug B concentration 0.001 µM | 0.966 | 0.944
drug A concentration 0.0001 µM, drug B concentration 0.00316228 µM | 0.816 | 0.848
drug A concentration 0.0001 µM, drug B concentration 0.01 µM | 0.498 | 0.692
drug A concentration 0.0001 µM, drug B concentration 0.0316228 µM | 0.284 | 0.606
drug A concentration 0.0001 µM, drug B concentration 0.1 µM | 0.242 | 0.545
drug A concentration 0.0001 µM, drug B concentration 0.316228 µM | 0.234 | 0.416
drug A concentration 0.0001 µM, drug B concentration 1 µM | 0.233 | 0.259
drug A concentration 0.000316228 µM, drug B concentration 0 µM | 1.05 | 1.03
drug A concentration 0.000316228 µM, drug B concentration 31.62 pM | 0.999 | 1.03
drug A concentration 0.000316228 µM, drug B concentration 0.0001 µM | 1.02 | 1.03
drug A concentration 0.000316228 µM, drug B concentration 0.000316228 µM | 1.01 | 0.998
drug A concentration 0.000316228 µM, drug B concentration 0.001 µM | 0.945 | 0.935
drug A concentration 0.000316228 µM, drug B concentration 0.00316228 µM | 0.829 | 0.882
drug A concentration 0.000316228 µM, drug B concentration 0.01 µM | 0.517 | 0.722
drug A concentration 0.000316228 µM, drug B concentration 0.0316228 µM | 0.298 | 0.611
drug A concentration 0.000316228 µM, drug B concentration 0.1 µM | 0.245 | 0.533
drug A concentration 0.000316228 µM, drug B concentration 0.316228 µM | 0.233 | 0.352
drug A concentration 0.000316228 µM, drug B concentration 1 µM | 0.233 | 0.234
drug A concentration 0.001 µM, drug B concentration 0 µM | 1.02 | 1
drug A concentration 0.001 µM, drug B concentration 31.62 pM | 0.985 | 0.999
drug A concentration 0.001 µM, drug B concentration 0.0001 µM | 1 | 0.937
drug A concentration 0.001 µM, drug B concentration 0.000316228 µM | 1.02 | 0.923
drug A concentration 0.001 µM, drug B concentration 0.001 µM | 0.892 | 0.935
drug A concentration 0.001 µM, drug B concentration 0.00316228 µM | 0.807 | 0.832
drug A concentration 0.001 µM, drug B concentration 0.01 µM | 0.498 | 0.709
drug A concentration 0.001 µM, drug B concentration 0.0316228 µM | 0.288 | 0.558
drug A concentration 0.001 µM, drug B concentration 0.1 µM | 0.238 | 0.444
drug A concentration 0.001 µM, drug B concentration 0.316228 µM | 0.233 | 0.258
drug A concentration 0.001 µM, drug B concentration 1 µM | 0.232 | 0.218
drug A concentration 0.00316228 µM, drug B concentration 0 µM | 0.921 | 0.917
drug A concentration 0.00316228 µM, drug B concentration 31.62 pM | 0.894 | 0.899
drug A concentration 0.00316228 µM, drug B concentration 0.0001 µM | 0.938 | 0.957
drug A concentration 0.00316228 µM, drug B concentration 0.000316228 µM | 0.912 | 0.905
drug A concentration 0.00316228 µM, drug B concentration 0.001 µM | 0.817 | 0.849
drug A concentration 0.00316228 µM, drug B concentration 0.00316228 µM | 0.675 | 0.753
drug A concentration 0.00316228 µM, drug B concentration 0.01 µM | 0.432 | 0.595
drug A concentration 0.00316228 µM, drug B concentration 0.0316228 µM | 0.275 | 0.439
drug A concentration 0.00316228 µM, drug B concentration 0.1 µM | 0.237 | 0.309
drug A concentration 0.00316228 µM, drug B concentration 0.316228 µM | 0.231 | 0.225
drug A concentration 0.00316228 µM, drug B concentration 1 µM | 0.232 | 0.214
drug A concentration 0.01 µM, drug B concentration 0 µM | 0.728 | 0.795
drug A concentration 0.01 µM, drug B concentration 31.62 pM | 0.777 | 0.778
drug A concentration 0.01 µM, drug B concentration 0.0001 µM | 0.787 | 0.8
drug A concentration 0.01 µM, drug B concentration 0.000316228 µM | 0.745 | 0.753
drug A concentration 0.01 µM, drug B concentration 0.001 µM | 0.613 | 0.674
drug A concentration 0.01 µM, drug B concentration 0.00316228 µM | 0.495 | 0.622
drug A concentration 0.01 µM, drug B concentration 0.01 µM | 0.31 | 0.454
drug A concentration 0.01 µM, drug B concentration 0.0316228 µM | 0.247 | 0.333
drug A concentration 0.01 µM, drug B concentration 0.1 µM | 0.24 | 0.245
drug A concentration 0.01 µM, drug B concentration 0.316228 µM | 0.231 | 0.216
drug A concentration 0.01 µM, drug B concentration 1 µM | 0.231 | 0.212
drug A concentration 0.0316228 µM, drug B concentration 0 µM | 0.503 | 0.601
drug A concentration 0.0316228 µM, drug B concentration 31.62 pM | 0.461 | 0.56
drug A concentration 0.0316228 µM, drug B concentration 0.0001 µM | 0.488 | 0.582
drug A concentration 0.0316228 µM, drug B concentration 0.000316228 µM | 0.466 | 0.546
drug A concentration 0.0316228 µM, drug B concentration 0.001 µM | 0.385 | 0.524
drug A concentration 0.0316228 µM, drug B concentration 0.00316228 µM | 0.314 | 0.441
drug A concentration 0.0316228 µM, drug B concentration 0.01 µM | 0.258 | 0.351
drug A concentration 0.0316228 µM, drug B concentration 0.0316228 µM | 0.239 | 0.263
drug A concentration 0.0316228 µM, drug B concentration 0.1 µM | 0.234 | 0.223
drug A concentration 0.0316228 µM, drug B concentration 0.316228 µM | 0.231 | 0.212
drug A concentration 0.0316228 µM, drug B concentration 1 µM | 0.231 | 0.218
drug A concentration 0.1 µM, drug B concentration 0 µM | 0.301 | 0.436
drug A concentration 0.1 µM, drug B concentration 31.62 pM | 0.293 | 0.419
drug A concentration 0.1 µM, drug B concentration 0.0001 µM | 0.302 | 0.422
drug A concentration 0.1 µM, drug B concentration 0.000316228 µM | 0.286 | 0.399
drug A concentration 0.1 µM, drug B concentration 0.001 µM | 0.273 | 0.373
drug A concentration 0.1 µM, drug B concentration 0.00316228 µM | 0.251 | 0.347
drug A concentration 0.1 µM, drug B concentration 0.01 µM | 0.238 | 0.281
drug A concentration 0.1 µM, drug B concentration 0.0316228 µM | 0.232 | 0.233
drug A concentration 0.1 µM, drug B concentration 0.1 µM | 0.231 | 0.215
drug A concentration 0.1 µM, drug B concentration 0.316228 µM | 0.23 | 0.211
drug A concentration 0.1 µM, drug B concentration 1 µM | 0.231 | 0.211
drug A concentration 0.316228 µM, drug B concentration 0 µM | 0.246 | 0.336
drug A concentration 0.316228 µM, drug B concentration 31.62 pM | 0.248 | 0.325
drug A concentration 0.316228 µM, drug B concentration 0.0001 µM | 0.25 | 0.339
drug A concentration 0.316228 µM, drug B concentration 0.000316228 µM | 0.246 | 0.317
drug A concentration 0.316228 µM, drug B concentration 0.001 µM | 0.245 | 0.298
drug A concentration 0.316228 µM, drug B concentration 0.00316228 µM | 0.238 | 0.272
drug A concentration 0.316228 µM, drug B concentration 0.01 µM | 0.235 | 0.234
drug A concentration 0.316228 µM, drug B concentration 0.0316228 µM | 0.232 | 0.216
drug A concentration 0.316228 µM, drug B concentration 0.1 µM | 0.232 | 0.211
drug A concentration 0.316228 µM, drug B concentration 0.316228 µM | 0.23 | 0.211
drug A concentration 0.316228 µM, drug B concentration 1 µM | 0.231 | 0.212
drug A concentration 1 µM, drug B concentration 0 µM | 0.239 | 0.26
drug A concentration 1 µM, drug B concentration 31.62 pM | 0.24 | 0.254
drug A concentration 1 µM, drug B concentration 0.0001 µM | 0.248 | 0.252
drug A concentration 1 µM, drug B concentration 0.000316228 µM | 0.238 | 0.246
drug A concentration 1 µM, drug B concentration 0.001 µM | 0.237 | 0.242
drug A concentration 1 µM, drug B concentration 0.00316228 µM | 0.236 | 0.246
drug A concentration 1 µM, drug B concentration 0.01 µM | 0.235 | 0.217
drug A concentration 1 µM, drug B concentration 0.0316228 µM | 0.233 | 0.223
drug A concentration 1 µM, drug B concentration 0.1 µM | 0.234 | 0.212
drug A concentration 1 µM, drug B concentration 0.316228 µM | 0.233 | 0.21
drug A concentration 1 µM, drug B concentration 1 µM | 0.234 | 0.217
drug A concentration 3.16228 µM, drug B concentration 0 µM | 0.245 | 0.227
drug A concentration 3.16228 µM, drug B concentration 31.62 pM | 0.243 | 0.224
drug A concentration 3.16228 µM, drug B concentration 0.0001 µM | 0.243 | 0.224
drug A concentration 3.16228 µM, drug B concentration 0.000316228 µM | 0.242 | 0.228
drug A concentration 3.16228 µM, drug B concentration 0.001 µM | 0.241 | 0.219
drug A concentration 3.16228 µM, drug B concentration 0.00316228 µM | 0.24 | 0.215
drug A concentration 3.16228 µM, drug B concentration 0.01 µM | 0.237 | 0.214
drug A concentration 3.16228 µM, drug B concentration 0.0316228 µM | 0.239 | 0.214
drug A concentration 3.16228 µM, drug B concentration 0.1 µM | 0.238 | 0.218
drug A concentration 3.16228 µM, drug B concentration 0.316228 µM | 0.238 | 0.213
drug A concentration 3.16228 µM, drug B concentration 1 µM | 0.239 | 0.215
